Key:
[1] = test system: soybean; test: Test E postemergence; type: in vivo, Glycine max
Description: (§1) Seeds of plant species selected from corn (Zea mays), soybean (Glycine max), velvetleaf (Abutilon theophrasti), lambsquarters (Chenopodium album), wild poinsettia (Euphorbia heterophylla), palmer pigweed (Amaranthus palmeri), waterhemp (common waterhemp, Amaranthus rudis), surinam grass (Brachiaria decumbens), large (Lg) crabgrass (Digitaria sanguinalis), Brazilian crabgrass (Digitaria horizontalis), fall panicum (Panicum dichotomiflorum), giant foxtail (Setaria faberii), green foxtail (Setaria viridis), goosegrass (Eleusine indica), johnsongrass (Sorghum halepense), ragweed (common ragweed, Ambrosia elatior), barnyardgrass (Echinochloa crus-galli), sandbur (southern sandbur, Cenchrus echinatus), arrowleaf sida (Sida rhombifolia), Italian ryegrass (Lolium multiflorum), dayflower (Virginia (VA) dayflower, Commelina virginica), field bindweed (Convolvulus arvensis), morningglory (Ipomoea coccinea), nightshade (eastern black nightshade, Solanum ptycanthum), kochia (Kochia scoparia), yellow nutsedge (Cyperus esculentus), cocklebur (common cocklebur, Xanthium strumarium), smartweed (ladysthumb smartweed, and hairy beggarticks (Bidens pilosa), were planted into a silt loam soil and treated preemergence with test chemicals formulated in a non-phytotoxic solvent mixture which included a surfactant.
(§2) At the same time, plants from these crop and weed species and also horseweed (Canada horseweed, Conyza canadensis), waterhemp_RES1, (ALS & Triazine resistant common waterhemp, Amaranthus rudis), and waterhemp_RES2, (ALS & HPPD resistant common waterhemp, Amaranthus rudis) were planted in pots containing Redi-Earth® planting medium (Scotts Company, 14111 Scottslawn Road, Marysville, Ohio 43041) comprising spaghnum peat moss, vermiculite, wetting agent and starter nutrients were treated with postemergence applications of test chemicals formulated in the same manner. Plants ranged in height from 2 to 18 cm for postemergence treatments (1- to 4-leaf stage). Treated plants and controls were maintained in a greenhouse for 14 to 21 days, after which time all species were compared to controls and visually evaluated. Plant response ratings, summarized in Table E, are based on a scale of 0 to 100 where 0 is no effect and 100 is complete control. A dash (-) response means no test result.

[2] = test system: Brazilian crabgrass; test: Test E postemergence; type: in vivo, Digitaria horizontalis
Description: as §1, §2

[3] = test system: corn; test: Test E postemergence; type: in vivo, Zea mays
Description: as §1, §2

[4] = test system: arrowleaf sida; test: Test E postemergence; type: in vivo, Sida rhombifolia
Description: as §1, §2

[5] = test system: sandbur; test: Test E postemergence; type: in vivo, Cenchrus echinatus
Description: as §1, §2

[6] = test system: winter wheat; test: Test D postemergence; type: in vivo, Triticum aestivum; conditions: Triticum aestivum, post-emergence
Description: (§3) Seeds of plant species selected from bluegrass (annual bluegrass, Poa annua), blackgrass (Alopecurus myosuroides), canarygrass (littleseed canarygrass, Phalaris minor), chickweed (common chickweed, Stellaria media), galium (catchweed bedstraw, Galium aparine), bromegrass, downy (downy bromegrass, Bromus tectorum), field poppy (Papaver rhoeas), field violet (Viola arvensis), green foxtail (Setaria viridis), deadnettle (henbit deadnettle, Lamium amplexicaule), Italian ryegrass (Lolium multiflorum), kochia (Kochia scoparia), lambsquarters (Chenopodium album), oilseed rape (Brassica napus), pigweed (Amaranthus retroflexus), chamomile (scentless chamomile, Matricaria inodora), Russian thistle (Salsola kali), speedwell (bird's-eye speedwell, Veronica persica), spring barley (Hordeum vulgare), spring wheat (Triticum aestivum), wild buckwheat (Polygonum convolvulus), wild mustard (Sinapis arvensis), wild oat (Avena fatua), wild radish (Raphanus raphanistrum), windgrass (Apera spica-venti), winter barley (Hordeum vulgare), and winter wheat (Triticum aestivum) were planted into a silt loam soil and treated preemergence with test chemicals formulated in a non-phytotoxic solvent mixture which included a surfactant.
(§4) At the same time, these species were planted in pots containing Redi-Earth® planting medium (Scotts Company, 14111 Scottslawn Road, Marysville, Ohio 43041) comprising spaghnum peat moss, vermiculite, wetting agent and starter nutrients and treated with postemergence applications of the test chemicals formulated in the same manner. Plants ranged in height from 2 to 18 cm (1- to 4-leaf stage). Treated plants and controls were maintained in a controlled growth environment for 7 to 21 days after which time all species were compared to controls and visually evaluated. Plant response ratings, summarized in Table D, are based on a scale of 0 to 100 where 0 is no effect and 100 is complete control. A dash (-) response means no test result.

[7] = test system: spring wheat; test: Test D postemergence; type: in vivo, Triticum aestivum; conditions: Triticum aestivum, post-emergence
Description: as §3, §4

[8] = test system: field violet; test: Test D postemergence; type: in vivo, Viola arvensis; conditions: Viola arvensis, post-emergence
Outline: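 Solvent/surfactant formulations are sprayed pre (silt loam) or post (1–4 leaf plants, 2–18 cm). Plants stay 7–21 days in controlled conditions before a visual 0–100 score is given.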

[9] = test system: winter wheat; test: Test D preemergence; type: in vivo, Triticum aestivum; conditions: Triticum aestivum, pre-emergence
Description: as §3, §4

[10] = test system: spring wheat; test: Test D preemergence; type: in vivo, Triticum aestivum; conditions: Triticum aestivum, pre-emergence
Description: as §3, §4

[11] = test system: field poppy; test: Test D preemergence; type: in vivo, Papaver rhoeas; conditions: Papaver rhoeas, pre-emergence
Description: as §3, §4

[12] = Postemergence, 31 g ai/ha, scale 0 to 100
[13] = Postemergence, 62 g ai/ha, scale 0 to 100
[14] = Postemergence, 125 g ai/ha, scale 0 to 100
[15] = Postemergence, 250 g ai/ha, scale 0 to 100
[16] = postemergence, 16 g ai/ha, scale 0 to 100, 0 no effect, 100 complete control
[17] = postemergence, 8 g ai/ha, scale 0 to 100, 0 no effect, 100 complete control

In the case of `FC(F)(F)c1cnn(-c2ccccc2Oc2ncc(Cl)cn2)c1` [Compound 16], the “Plant response rating, Soybean” value [1, 12] is reported as 30, the “Plant response rating, Soybean” value [1, 13] is reported as 80 and the “Plant response rating, Soybean” value [1, 14] is reported as 95. For the same compound, the “Plant response rating, Soybean” value [1, 15] was 95, the “Plant response rating, Soybean” value [1, 16] was 15 and the “Plant response rating, Crabgrass, Brazil” value [2, 12] was 0. The “Plant response rating, Crabgrass, Brazil” value [2, 13] was 10, the “Plant response rating, Crabgrass, Brazil” value [2, 14] was 30 and the “Plant response rating, Crabgrass, Brazil” value [2, 15] was 40. For the same compound, the “Plant response rating, Crabgrass, Brazil” value [2, 16] was 0, the “Plant response rating, Corn” value [3, 12] was 0 and the “Plant response rating, Corn” value [3, 13] was 0. The “Plant response rating, Corn” value [3, 14] was 10, the “Plant response rating, Corn” value [3, 15] was 15 and the “Plant response rating, Corn” value [3, 16] was 0. The “Plant response rating, Arrowleaf Sida” value [4, 12] was 70, the “Plant response rating, Arrowleaf Sida” value [4, 13] was 75 and the “Plant response rating, Arrowleaf Sida” value [4, 14] was 80. For the same compound, the “Plant response rating, Arrowleaf Sida” value [4, 15] was 90, the “Plant response rating, Arrowleaf Sida” value [4, 16] was 50 and the “Plant response rating, Sandbur” value [5, 12] was 0. For the same compound, the “Plant response rating, Sandbur” value [5, 13] was 0, the “Plant response rating, Sandbur” value [5, 14] was 0 and the “Plant response rating, Sandbur” value [5, 15] was 0. The “Plant response rating, Sandbur” value [5, 16] was 0.
`Clc1cnc(Oc2cccc(Br)c2-n2cc(Br)cn2)nc1` [Compound 65] was tested, and the “Plant response rating, Soybean” value [1, 12] was 20, the “Plant response rating, Soybean” value [1, 13] was 50 and the “Plant response rating, Soybean” value [1, 14] was 98. For the same compound, the “Plant response rating, Soybean” value [1, 17] was 15, the “Plant response rating, Soybean” value [1, 16] was 20 and the “Plant response rating, Crabgrass, Brazil” value [2, 12] was 10. For the same compound, the “Plant response rating, Crabgrass, Brazil” value [2, 13] was 10, the “Plant response rating, Crabgrass, Brazil” value [2, 14] was 15 and the “Plant response rating, Crabgrass, Brazil” value [2, 17] was 0. For the same compound, the “Plant response rating, Crabgrass, Brazil” value [2, 16] was 0, the “Plant response rating, Corn” value [3, 12] was 10 and the “Plant response rating, Corn” value [3, 13] was 10. The “Plant response rating, Corn” value [3, 14] was 10, the “Plant response rating, Corn” value [3, 17] was 0 and the “Plant response rating, Corn” value [3, 16] was 0. The “Plant response rating, Arrowleaf Sida” value [4, 12] was 60, the “Plant response rating, Arrowleaf Sida” value [4, 13] was 80 and the “Plant response rating, Arrowleaf Sida” value [4, 14] was 80. For the same compound, the “Plant response rating, Arrowleaf Sida” value [4, 17] was 55, the “Plant response rating, Arrowleaf Sida” value [4, 16] was 50 and the “Plant response rating, Sandbur” value [5, 12] was 0. The “Plant response rating, Sandbur” value [5, 13] was 0, the “Plant response rating, Sandbur” value [5, 14] was 0 and the “Plant response rating, Sandbur” value [5, 17] was 0. For the same compound, the “Plant response rating, Sandbur” value [5, 16] was 0.
In the case of `FC(F)(F)COc1cnn(-c2ccccc2Oc2ncc(Cl)cn2)c1` [Compound 138, 5-chloro-2-[2-[4-(2,2,2-trifluoroethoxy)-1H-pyrazol-1-yl]phenoxy]pyrimidine], the plant injury at 16 g/ha ([6]; 16 g ai/ha, scale 0-100, read-out: Plant response rating, Wheat, Winter) is reported as 0%, the plant injury at 31 g/ha ([6]; 31 g ai/ha, scale 0 to 100 (0 no effect, 100 complete control), read-out: Plant response rating, Wheat, Winter) is reported as 0% and the plant injury at 62 g/ha ([6]; 62 g ai/ha, scale 0 to 100 (0 no effect, 100 complete control), read-out: Plant response rating, Wheat, Winter) is reported as 5%. It also gave a plant injury at 125 g/ha ([6]; 125 g ai/ha, scale 0 to 100 (0 no effect, 100 complete control), read-out: Plant response rating, Wheat, Winter) of 15%, a plant injury at 16 g/ha ([7]; 16 g ai/ha, scale 0-100, read-out: Plant response rating, Wheat, Spring) of 5% and a plant injury at 31 g/ha ([7]; 31 g ai/ha, scale 0 to 100 (0 no effect, 100 complete control), read-out: Plant response rating, Wheat, Spring) of 5%. For the same compound, the plant injury at 62 g/ha ([7]; 62 g ai/ha, scale 0 to 100 (0 no effect, 100 complete control), read-out: Plant response rating, Wheat, Spring) was 5%, the plant injury at 125 g/ha ([7]; 125 g ai/ha, scale 0 to 100 (0 no effect, 100 complete control), read-out: Plant response rating, Wheat, Spring) was 15% and the pest or weed control at 16 g/ha ([8]; 16 g ai/ha, scale 0-100, read-out: Plant response rating, Field Violet) was 25%. It also gave a pest or weed control at 31 g/ha ([8]; 31 g ai/ha, scale 0 to 100 (0 no effect, 100 complete control), read-out: Plant response rating, Field Violet) of 50%, a pest or weed control at 62 g/ha ([8]; 62 g ai/ha, scale 0 to 100 (0 no effect, 100 complete control), read-out: Plant response rating, Field Violet) of 65% and a pest or weed control at 125 g/ha ([8]; 125 g ai/ha, scale 0 to 100 (0 no effect, 100 complete control), read-out: Plant response rating, Field Violet) of 75%. It also gave a plant injury at 16 g/ha ([9]; 16 g ai/ha, scale 0 (no effect) to 100 (complete control), read-out: Plant response rating, Wheat, Winter) of 0%, a plant injury at 31 g/ha ([9]; 31 g ai/ha, scale 0 (no effect) to 100 (complete control), read-out: Plant response rating, Wheat, Winter) of 5% and a plant injury at 62 g/ha ([9]; 62 g ai/ha, scale 0-100, read-out: Plant response rating, Wheat, Winter) of 5%. For the same compound, the plant injury at 125 g/ha ([9]; 125 g ai/ha, scale 0-100, read-out: Plant response rating, Wheat, Winter) was 5%, the plant injury at 16 g/ha ([10]; 16 g ai/ha, scale 0 (no effect) to 100 (complete control), read-out: Plant response rating, Wheat, Spring) was 0% and the plant injury at 31 g/ha ([10]; 31 g ai/ha, scale 0 (no effect) to 100 (complete control), read-out: Plant response rating, Wheat, Spring) was 10%. It also gave a plant injury at 62 g/ha ([10]; 62 g ai/ha, scale 0-100, read-out: Plant response rating, Wheat, Spring) of 15%, a plant injury at 125 g/ha ([10]; 125 g ai/ha, scale 0-100, read-out: Plant response rating, Wheat, Spring) of 15% and a pest or weed control at 16 g/ha ([11]; 16 g ai/ha, scale 0 (no effect) to 100 (complete control), read-out: Plant response rating, Field Poppy) of 100%. The pest or weed control at 31 g/ha ([11]; 31 g ai/ha, scale 0-100, read-out: Plant response rating, Field Poppy) was 100%, the pest or weed control at 62 g/ha ([11]; 62 g ai/ha, scale 0-100, read-out: Plant response rating, Field Poppy) was 100% and the pest or weed control at 125 g/ha ([11]; 125 g ai/ha, scale 0-100, read-out: Plant response rating, Field Poppy) was 100%.

Reference: patent US9695155B2, “Herbicidal substituted pyrimidinyloxy benzene compounds” (E. I. DU PONT DE NEMOURS AND COMPANY, priority 2013, dated 2017)
